Data reported in patent publication US10151756B2, “Predictive markers for polyamine inhibitor cancer therapies” (ARIZONA BOARD OF REGENTS ON BEHALF OF UNIVERSITY OF ARIZONA, priority 2012, dated 2018).
“Also recorded” adds a separate entry of the source.

How the values were obtained:
HCT116 cells = experiment: Cellular proliferation and viability (Vi-Cell counter, trypan blue exclusion); type: cell-based, human
Description: Cellular Proliferation. […] At each time point, cells were trypsinized with 500 μL of trypsin and resuspended with 1.5 mL DMEM supplemented with FBS. One milliliter of the resuspension was then loaded and analyzed using a Beckman-Coulter Vi-Cell Counter. Cellular viability was measured through the trypan blue exclusion assay.

[1] = test system: colorectal cancer cells (HCT116); experiment: Non-coding RNA microarray of DFMO treated vs untreated cells; type: cell-based, human; conditions: 96 h
Description: (§1) HCT116 cells were grown in DMEM media supplemented with 10% fetal bovine serum and cultured at 37° C. For reverse transcription, total RNA was extracted using mirVana RNA isolation kit and reverse transcription performed using Taqman Small RNA Assays with predesigned primer specific to mature let-7 (Applied Biosystems). […] Western blots were conducted using anti-HMGA2 (Cell Signaling), LIN28 (abcam), anti-V5 (Invitrogen), eIF5A1 (Epitomics), and Actin (Sigma). Locked Nucleic Acid (LNA) anti-sense oligos were purchased from Exiqon and directed against seed region of let-7 as described previously (Obad et al., 2011). Pre-designed Silencer Select siRNAs (Invitrogen) were obtained to specifically knockdown eIFSA isoforms. All transfections were conducted using Lipofectamine 2000 as described by manufacturer for up to 48 h. All bars show mean±s.d and statistical analysis was performed by using Student's t-test (*P<0.05; **P<0.01, ***P<0.001).
Non-Coding RNA Microarray.
Samples for miRNA profiling studies were processed by Asuragen Services (Austin, Tex.), according to the company's standard operating procedures. Following incoming sample quality control (QC) assessment, the 3′ ends of RNA molecules in total RNA samples were labeled with biotin according to the company's standard protocol. Labeled RNA (100 ng total RNA per sample) was purified and hybridized to Affymetrix GeneChip® miRNA Arrays (Affymetrix, Santa Clara, Calif.). Hybridization, washing, staining, imaging, and signal extraction were performed according to Affymetrix-recommended procedures. Arrays were scanned on an Affymetrix GeneChip® Scanner 3000 7G.
Signal Processing. The signal processing implemented for the Affymetrix miRChip is a multi-step process involving probe specific signal detection calls, background estimate and correction. For each probe, a global robust multichip average (RMA) background correction is performed with Median Polish summarization. Arrays within a specific analysis experiment are normalized together using Quantile normalization. Detection calls are based on a Wilcoxon rank-sum test of the miRNA probe signal compared to the distribution of signals from GC-content matched anti-genomic probes. The raw gene expression data (.cel files) were converted to expression values using the miRNAQCTool, an open-source package available through Affymetrix. […]. RMA selection was used as a normalization method. Permutation P-values were then calculated for the t-test comparison between the DFMO treated and untreated placebo plates. These P-values were then ranked and a candidate gene list was compiled, using false discovery rate (FDR), adjusted P-value cut-offs obtained by the linear step-up method described by Benjamini and Hochberg (1995).
Next, the mechanism by which polyamines modulate oncogenesis and the effects of polyamine depletion on non-coding RNA levels was investigated by using a non-coding RNA microarray platform containing 15,644 probes, which included 1105 human mature miRNAs. MicroRNAs (miRNAs) are small endogenous RNA species known to modulate cellular signaling predominantly by binding the 3′ untranslated region (UTR) of RNA species. Binding of miRNAs to its cognate target generally results in mRNA destabilization or translational repression (Filipowicz et al., 2008). As a result of the abilities of miRNAs to modulate signaling networks involved in both development and neoplastic diseases, miRNAs serve as attractive targets for disease intervention.

LIN28 = experiment: Immunoblot of LIN28 protein in HCT116 cells; type: cell-based, human
Description: as §1, with “Locked Nucleic Acid (LNA) anti-sense oligos were purchased from Exiqon and directed against seed region of let-7 as described previously (Obad et al., 2011).” left out, “All transfections were conducted using Lipofectamine 2000 as described by manufacturer for up to 48 h.” left out
(§2) Immunoblot Analysis and Quantification of Western Blot Results.
(§3) Protein concentrations were determined using BCA assay (Pierce). […] Membranes were washed three times for 10 min and subsequently secondary antibodies were incubated with anti-mouse and anti-rabbit horseradish peroxidase conjugated antibodies (Santa Cruz Biotechnologies). Proteins were visualized by chemoluminescence using Amersham Plus ECL reagent (GE Healthcare). Bands were quantified via Western blot analysis by applying ImageJ software analysis. […] Briefly, areas under the curves were assessed for each specific band and comparisons were calculated by setting corresponding control values as 100% and each condition corrected by actin.
(§4) The LNA probes were purchased from Exiqon and synthesized using a phosphorothioate backbone.

tumor putrescine levels = conditions: rat-tumor model, DFMO infusion; cited from earlier work
HMGA2 = experiment: Immunoblot of HMGA2 protein in HCT116 cells; type: cell-based, human
Description: as §1, with “Locked Nucleic Acid (LNA) anti-sense oligos were purchased from Exiqon and directed against seed region of let-7 as described previously (Obad et al., 2011).” left out, “All transfections were conducted using Lipofectamine 2000 as described by manufacturer for up to 48 h.” left out
as §2, §3, §4

Hmga2 3′ UTR = experiment: Hmga2 3' UTR luciferase reporter assay; type: cell-based
Description: Luciferase Reporter Assays.
Hmga2 3′ UTR reporter plasmids were obtained from Addgene (Plasmid 14785) and have been characterized in previous studies (Mayr et al., 2007). A mutated Hmga2 reporter plasmid with disrupted let-7 complementary sites was also obtained (Addgene plasmid 14792). HCT116 cells were transfected in 6-well plates with 1.5 μg firefly luciferase and 1.5 μg Hmga2 Renilla luciferase reporter plasmids. For functional analysis, 25 nM LNA directed against the let-7 family were transfected with appropriate plasmids. Firefly and renilla luciferase were measured 48 h after transfection using a Dual Luciferase Assay (Promega). Results were then normalized to firefly luciferase. Results are mean±SD.

colon cancer cells = experiment: Measurements of intracellular polyamine content (HPLC); type: cell-based, human
Excerpt: Measurements of Intracellular Polyamine Content.
Cells were homogenized in 0.2 N HClO4. Acid-soluble and acid insoluble fractions were used to determine intracellular polyamines and protein content, respectively.
It was hypothesized that the polyamines, acting independently or via eIFSA, might affect levels of non-coding RNAs.

[2] = test system: tumors harboring Ki-ras mutations; conditions: AOM-treated rats; reduced from 90%; cited from earlier work
hsa-let-7i = experiment: Real-time quantitative RT-PCR of mature let-7i; type: cell-based, human
Description: as §1, with “Locked Nucleic Acid (LNA) anti-sense oligos were purchased from Exiqon and directed against seed region of let-7 as described previously (Obad et al., 2011).” left out, “All transfections were conducted using Lipofectamine 2000 as described by manufacturer for up to 48 h.” left out
RNA Isolation and Real-Time Quantitative RT-PCR.
Total RNA was extracted from cells using the miRVana RNA isolation kit (Ambion) and measured using Thermo Scientific NanoDrop 2000. miRNA levels were measured using an Applied Biosystems 7500 HT PCR instrument with Taqman microRNA assay kits. Controlled reactions were confirmed by excluding reverse transcriptase to confirm amplification from cDNA. Results were analyzed using comparative Ct method between untreated and treated cells. Statistical analysis was performed using two tailed Student's t-tests.

[3] = in vivo; cited from earlier work
prostoglandin E2 (PGE2) = conditions: 300 mg/day, one month; cited from earlier work
[4] = cited from earlier work
[5] = cited from earlier work; remark: listed apart in the source

Compound: NCCCC(N)(C(=O)O)C(F)F (racemic) [DFMO, 2-(difluoromethyl)-dl-ornithine]
- cellular viability levels (HCT116 cells; DFMO treatment, trypan blue exclusion): not altered
- cellular proliferation (HCT116 cells; HCT116 cells, 5 mM DFMO (FIG. 1B)): reduce cellular proliferation
- Mean Expression Level Treatment, probe U8_st ([1]; probe U8_st): 8.90
- Mean Expression Level Treatment, probe U8_x_st ([1]; probe U8_x_st): 8.86
- Mean Expression Level Treatment, probe U13_st ([1]; probe U13_st): 9.81
- Mean Expression Level Treatment, probe U50B_st ([1]; probe U50B_st): 10.72
- Mean Expression Level Treatment, probe U50B_x_st ([1]; probe U50B_x_st): 9.86
- Mean Expression Level Treatment, probe hsa-let-7i_st ([1]; probe hsa-let-7i_st): 10.74
- Mean Expression Level Treatment, probe hsa-miR-22_st ([1]; probe hsa-miR-22_st): 10.38
- Mean Expression Level Treatment, probe hsa-miR-193b_st ([1]; probe hsa-miR-193b_st): 8.79
- Mean Expression Level Treatment, probe hsa-miR-200a-star_st ([1]; probe hsa-miR-200a-star_st): 4.89
- Mean Expression Level Treatment, probe hsa-miR-221_st ([1]; probe hsa-miR-221_st): 12.50
- Mean Expression Level Treatment, probe hsa-miR-494_st ([1]; probe hsa-miR-494_st): 12.64
- Mean Expression Level Treatment, probe hsa-miR-517a_st ([1]; probe hsa-miR-517a_st): 1.47
- Mean Expression Level Treatment, probe hsa-miR-720_st ([1]; probe hsa-miR-720_st): 14.63
- Mean Expression Level Treatment, probe hsa-miR-886-3p_st ([1]; probe hsa-miR-886-3p_st): 11.26
- LIN28 protein levels (LIN28; HCT116 cells, 5 mM DFMO, 72 h (FIG. 2A)): lowered levels of LIN28
- decrease in tumor putrescine levels (tumor putrescine levels): 90%
- HMGA2 protein levels (HMGA2; HCT116 cells, 5 mM DFMO, 72 h (FIG. 2A, 2C)): robust HMGA2 depletion; also recorded: lower HMGA2 levels
- HMGA2 luciferase activity (Hmga2 3′ UTR; DFMO-treated mock cells compared to mock-untreated cells (FIG. 2B)): a reduction in HMGA2 luciferase was observed
- intracellular polyamine pools (colon cancer cells; colon cancer cells, 96 h of DFMO treatment (FIG. 1A)): depletion of putrescine and spermidine
- number of tumors harboring Ki-ras mutations [2]: 36%
- expression of mature let-7i (hsa-let-7i; HCT116 cells treated with DFMO, maximal at 96 h (FIG. 1C)): Increased expression

Compound: Cc1ccc(-c2cc(C(F)(F)F)nn2-c2ccc(S(N)(=O)=O)cc2)cc1 [celecoxib, 4-[5-(4-Methylphenyl)-3-(trifluoromethyl)pyrazol-1-yl]benzenesulfonamide]
- increase in rates of heart and blood vessel disease [3]: 30%
- risk of gastrointestinal side effects [3]: greater than 80%

Compound: CC(C)Cc1ccc(C(C)C(=O)O)cc1 (stereo not shown) [ibuprofen]
- prostoglandin E2 (PGE2) levels in flat mucosa (prostoglandin E2 (PGE2)): significant decrease

Compound: CN1C(C(=O)Nc2ccccn2)=C(O)c2ccccc2S1(=O)=O [piroxicam, 4-hydroxy-2-methyl-N-2-pyridyl-2H-1,2-benzothiazine-3-carboxamide 1,1-dioxide]
- number of tumors harboring Ki-ras mutations [2]: 25%

Compound: NCCCCN [putrescine]
- cellular proliferation of DFMO-treated cells (HCT116 cells; HCT116 cells, 50 μM putrescine with 5 mM DFMO (FIG. 1B)): proliferation rates similar to control levels
- LIN28 protein levels in non-drug treated cells (LIN28; putrescine supplementation alone (FIG. 2A)): did not alter
- LIN28 protein levels in DFMO treated cells (LIN28; putrescine supplementation in DFMO treated cells (FIG. 2A)): LIN28 levels comparable to vehicle control; also recorded: rescued
- intracellular polyamine levels in DFMO-treated cells (colon cancer cells; exogenous putrescine supplementation of DFMO-treated cells (FIG. 1A)): restore intracellular polyamine levels
- let-7i levels in DFMO treated cells (hsa-let-7i; HCT116, putrescine after DFMO administration (FIG. 1D)): rescued
- let-7i levels in cultures not treated with drug (hsa-let-7i; HCT116, putrescine alone (FIG. 1D)): no observable effect

Compound: CC1=C(CC(=O)O)c2cc(F)ccc2/C1=C\c1ccc([S+](C)[O-])cc1 (stereo not shown) [sulindac, (Z)-5-fluoro-2-methyl-1-((4 (methylsulfinyl)phenyl)methylene) 1H-indene-3-acetic acid]
- patients with mild gastrointestinal effects ([4]; abdominal pain and nausea most frequent): ~20%
- patients with skin rash and pruritus ([4]; human, in vivo): 5%
- time to peak plasma levels, with food ([5]; administered with food): 3 to 4 h
- fraction of the drug absorbed ([5]; after oral administration): about 90%
- time to peak plasma levels, fasting ([5]; fasting patients): about 2 h

Compound: anti-let-7 LNA: locked nucleic acid antisense oligo, phosphorothioate backbone, against let-7 seed region: ACTACCTC (SEQ ID NO: 1) (all phosphorothioate, sugars by position and methylation of C not given here; LNA oligo)
- LIN28 expression (LIN28; 25 nM anti-let-7 LNA, HCT116 cells (FIG. 3C)): little effect
- HMGA2 protein in DFMO-treated cells (HMGA2; LNA transfected DFMO-treated HCT116 cells (FIG. 2C)): rescued
- HMGA2 protein levels, cells without DFMO (HMGA2; LNA transfected mock-treated HCT116 cells (FIG. 2C, 3C), listed as LNAs targeting let-7): increase in HMGA2 protein levels; also recorded: increased
- wild-type Hmga2 3′ UTR luciferase activity (Hmga2 3′ UTR; 25 nM LNA, both DFMO treated and untreated HCT116 cells (FIG. 2B)): enhanced luciferase activity
- mutated 3′ UTR Hmga2 luciferase activity (Hmga2 3′ UTR; 25 nM LNA, irrespective of polyamine levels (FIG. 2B)): no observable effect
